In patent publication EP2353599A1, “8-hydroxyquinolines as inhibitors of cathepsin B” (University of Ljubljana, priority 2010, dated 2011):
“Also recorded” adds a separate entry of the source. One block for each compound: values may come before it.

Tests used:
Cathepsin B [1] = biological target: T1, Cathepsin B (Homo sapiens, UniProt P07858); assay: Cathepsin B endopeptidase activity, enzyme kinetics with substrate Z-RR-AMC; assay type: biochemical; conditions: endopeptidase activity, substrate Z-RR-AMC, pH 6.0, 37°C
Protocol: The effect of 8-hydroxyquinolines on cathepsin B enzymatic activity was assessed using enzyme kinetics. First, the effect of 8-hydroxyquinolines on cathepsin B endopeptidase activity was assessed using the cathepsin B specific endopeptidase substrate Z-RR-AMC. 5 µl of the Z-RR-AMC (final concentration 60, 180 and 360 µM) and 5 µl of respective compound at increasing concentrations were added to wells of a black microplate. 90 µl of human recombinant cathepsin B was then added to a final concentration of 0.4 nM in activation buffer (100 mM phosphate buffer, pH 6.0 with 0.1 % PEG, 5 mM DTT and 1.5 mM EDTA). All assay mixtures contained a constant amount of DMSO, i.e. 5 %. Formation of fluorescent degradation product was continuously monitored at 380 nm ± 20 nm excitation and […] ± 10 nm emission wavelengths on Tecan Safire^2™ at 37°C. Mechanism and the constant of inhibition (Ki) of cathepsin B endopeptidase activity were determined using the graphical method according to Cornish-Bowden (Cornish-Bowden A: A Simple Graphical Method for Determining the Inhibition Constants of Mixed, Uncompetitive and Non-Competitive Inhibitors. Biochem J 1974, 137:143-4.) and using the SigmaPlot® 11, Enzyme Kinetics Module™ 1.3. Table I. Results of testing the compounds according to Formula (I) on cathepsin B endopeptidase activity.

MCF-10A neoT cells [2] = assay: Extracellular DQ-collagen IV degradation, fluorescence intensity in medium; assay type: cell-based; conditions: 3 h, DQ-collagen IV 5 µg/ml
Protocol: Two experiments were set to differentiate between inhibition of intracellular and extracellular DQ-collagen IV degradation. Inhibition of extracellular DQ-collagen IV degradation was observed by monitoring the fluorescence intensity of degraded DQ-collagen IV in the medium in which MCF-10A neoT cells were grown. 5 × 10^4 MCF-10A neoT cells were plated into wells of a 96-well black plate and were allowed to attach over night. Cells were then incubated with 100 µl PBS containing 5-nitro-8-hydroxyquinoline, CA-074 or CA-074Me (10 µM) and DQ-collagen IV (5 µg/ml) for 3 h. Afterwards, the 80 µl of PBS was transferred into the empty wells and the fluorescence intensity was measured at 495 nm ± 5 nm excitation and 515 nm ± 5 nm emission wavelengths on Tecan Safire^2™. The experiment was performed in 8 parallels and DMSO was used as a control.

MCF-10A neoT cells [3] = assay: Intracellular DQ-collagen IV degradation by flow cytometry; assay type: cell-based; conditions: 50 µM, shift in fluorescence intensity
Protocol: Inhibition of intracellular DQ-collagen IV degradation was observed by flow cytometry by a shift in fluorescence intensity. 5 × 10^4 MCF-10A neoT cells in complete medium were plated into the wells of a 24-well plate and allowed to attach over night. Afterwards, the medium was replaced with 500 µl of serum free medium with 5-nitro-8-hydroxyquinoline, CA-074 or CA-074Me (50 µM). After 2 h incubation the medium was again replaced with serum free medium containing inhibitors (50 µM) and DQ-collagen IV (5 µg/ml). DMSO was used as a control. For the experiment only viable cells were selected using propidium iodide. The measurements were performed on a FACS Calibur instrument (Beckton Dickinson, Inc.).

Cathepsin B [4] = biological target: T1, Cathepsin B; conditions: cited from earlier work; for less potent in vitro than parent inhibitor: esterified cell permeable derivatives versus E-64 and CA-074; for inhibit cathepsin B: background
Cathepsin B [5] = biological target: T1, Cathepsin B; assay: Reversibility with active site probe DCG-04 (labelling, SDS-PAGE, blot); assay type: binding; conditions: 0.1, 1, 10 and 50 µM inhibitor, 1 h, then 2 µM DCG-04
From the text: Second, the reversibility of 5-nitro-8-hydroxyquinoline was also studied with the active site probe DCG-04. DCG-04 is a derivative of an irreversible epoxysuccinic inhibitor of cysteine proteases E-64 with an additional biotin moiety which enables detection of covalently modified proteases with labelling intensity correlating with enzymatic activity (Greenbaum D, Medzihradszky KF, Burlingame A, Bogyo M: Epoxide electrophiles as activity-dependent cysteine protease profiling and discovery tools. Chem Biol 2000, 7: 569-81.). 1 µg of recombinant cathepsin B in 50 mM Tris, pH 5.5 containing 1 mM DTT, 5 mM MgCl2 and 250 mM sucrose was incubated with 0.1, 1, 10 in 50 µM 5-nitro-8-hydroxyquinoline (diluted from 10 mM DMSO stocks) for 1 h at room temperature. Samples were then labelled with 2 µM DCG-04 for an additional h at room temperature. After boiling in reducing sample buffer for 10 min samples were analyzed by 12.5 % SDS-PAGE and transferred to a nitrocellulose membrane. The latter was then blocked with 0.5 % Tween 20 in PBS overnight at 4 °C and incubated with 1 µg/ml streptavidin-horseradish peroxidase in 0.2 % Tween 20 in PBS for 1 h at room temperature. The membrane was washed five times with 0.2 % Tween 20 in PBS and the spots on the membrane were visualized with 0.5 mg/ml 3,3'-diaminobenzidine and 0.0005 % (v/v) H2O2 in 50 mM Tris, pH 7.5. […]

Cathepsin B [6] = biological target: T1, Cathepsin B; assay: Reversibility by mass spectrometry (ESI-MS of cathepsin B after incubation and dialysis); assay type: binding; conditions: equimolar inhibitor, 1 h room temperature, dialysis
Protocol: Third, reversibility of 5-nitro-8-hydroxyquinoline was also checked with mass spectrometry. Cathepsin B (4.4 µM) was activated in the activation buffer for 5 min at 37 °C. Afterwards, an equimolar amount of the inhibitor was added to the enzyme and incubated for 1 h at room temperature. The mixture was dialyzed against water five times using Microcon Centrifugal Filter Devices YM-10 to avoid salt interferences and to remove unbound molecules of the test compound. Samples were then prepared by adding an equal volume of acetonitrile containing 0.1 % formic acid and analyzed with ESI-MS on an AutoSpec Q instrument. As a positive control CA-074 was used.

Ki (Cathepsin B [1]): 110 ± 3.1 µM
Structure (SMILES): O=[N+]([O-])c1cc(CN2CCCC(O)C2)c(O)c2ncccc12 (racemic) [Compound 8, 7-((3-Hydroxypiperidin-1-yl)methyl)-5-nitro-8-hydroxyquinoline]

Structure (SMILES): CCCNC(=O)[C@H]1O[C@@H]1C(=O)N[C@H](C(=O)N1CCC[C@H]1C(=O)OC)[C@@H](C)CC [CA-074Me]
inhibition of extracellular DQ-collagen IV degradation (MCF-10A neoT cells [2]; 10 µM): 33.8% | inhibition of intracellular DQ-collagen IV degradation (MCF-10A neoT cells [3]): significantly inhibited | less potent in vitro than parent inhibitor (Cathepsin B [4]): 100-1000 fold

Structure (SMILES): CCCNC(=O)[C@H]1O[C@@H]1C(=O)N[C@H](C(=O)N1CCC[C@H]1C(=O)O)[C@@H](C)CC [CA-074]
intensity of spots (DCG-04 labelling) versus DMSO control (Cathepsin B [5]): concentration dependent loss of spot intensity | change of mass of the enzyme (Cathepsin B [6]): 384 Da | inhibition at 10 µM (MCF-10A neoT cells [2]; Homo sapiens, MCF-10A-neoT): 31.1% | inhibition of intracellular DQ-collagen IV degradation (MCF-10A neoT cells [3]): only slightly inhibited; also recorded: did not | inhibit cathepsin B (Cathepsin B [4]): nanomolar range

Ki (Cathepsin B [1]): 119 ± 4.2 µM
Structure (SMILES): O=[N+]([O-])c1cc(CN2CCOCC2)c(O)c2ncccc12 [Compound 2, 7-(Morpholinomethyl)-5-nitro-8-hydroxyquinoline]

Ki (Cathepsin B [1]): 118 ± 3.1 µM
Structure (SMILES): O=[N+]([O-])c1cc(CN2CCCC2)c(O)c2ncccc12 [Compound 3, 7-(Pyrrolidinomethyl)-5-nitro-8-hydroxyquinoline]

Ki (Cathepsin B [1]): 75.6 ± 4 µM
Structure (SMILES): CN1CCN(Cc2cc([N+](=O)[O-])c3cccnc3c2O)CC1 [Compound 4, 7-((4-Methylpiperazin-1-yl)methyl)-5-nitro-8-hydroxyquinoline]

Ki (Cathepsin B [1]): 130 ± 3.4 µM
Structure (SMILES): O=[N+]([O-])c1cc(CN2CCC(O)CC2)c(O)c2ncccc12 [Compound 5, 7-((4-Hydroxypiperidin-1-yl)methyl)-5-nitro-8-hydroxyquinoline]

Ki (Cathepsin B [1]): 130 ± 3.5 µM
Structure (SMILES): CC1CCN(Cc2cc([N+](=O)[O-])c3cccnc3c2O)CC1 [Compound 6, 7-((4-Methypiperidin-1-yl)methyl)-5-nitro-8-hydroxyquinoline]

Ki (Cathepsin B [1]): 89 ± 3.3 µM
Structure (SMILES): O=C(O)C1CCN(Cc2cc([N+](=O)[O-])c3cccnc3c2O)CC1 [Compound 7, 7-((4-Carboxypiperidin-1-yl)methyl)-5-nitro-8-hydroxyquinoline]

Structure (SMILES): CC(C)C[C@H](NC(=O)[C@H]1O[C@@H]1C(=O)O)C(=O)NCCCCN=C(N)N [Compound E-64]
inhibit cathepsin B (Cathepsin B [4]): nanomolar range

Structure (SMILES): CCOC(=O)[C@H]1O[C@@H]1C(=O)N[C@@H](CC(C)C)C(=O)NCCC(C)C [Compound E-64d]
less potent in vitro than parent inhibitor (Cathepsin B [4]): 100-1000 fold
